According to US20240051970A1, “COMPOUNDS AND COMPOSITIONS FOR TREATING CONDITIONS ASSOCIATED WITH STING ACTIVITY” (IFM Due, Inc., priority 2020, published 2024):

Target: T1, hSTING (Homo sapiens, UniProt Q86WV6, G230A/H232R/R293Q/R71H)
T1 construct: host or cells: THP1-Dual KO-IFNAR2 cells
Test: STING reporter assay (luciferase) in THP1-Dual KO-IFNAR2 cells activated with 2'3'cGAMP
Type: cell-based
Conditions: 15 μM 2'3'cGAMP, 24 h
Experimental: STING pathway activation by the compounds described herein was measured using THP1-Dual™ cells (KO-IFNAR2).
THP1-Dual™ KO-IFNAR2 Cells (obtained from invivogen) were maintained in RPMI, 10% FCS, 5 ml P/S, 2 mM L-glut, 10 mM Hepes, and 1 mM sodium pyruvate. Compounds were spotted in empty 384 well tissue culture plates (Greiner 781182) by Echo for a final concentration of 0.0017-100 μM. Cells were plated into the TC plates at 40 μL per well, 2×10E6 cells/mL. For activation with STING ligand, 2′3′cGAMP (MW 718.38, obtained from Invivogen), was prepared in Optimem media.
The following solutions were prepared for each 1×384 plate: • Solution A: 2 mL Optimem with one of the following stimuli: • 60 μL of 10 mM 2′3′cGAMP 4 150 μM stock • Solution B: 2 mL Optimem with 60 μL Lipofectamine 2000 4 Incubate 5 min at RT
2 mL of solution A and 2 ml Solution B was mixed and incubated for 20 min at room temperature (RT). 20 μL of transfection solution (A+B) was added on top of the plated cells, with a final 2′3′cGAMP concentration of 15 μM. The plates were then centrifuged immediately at 340 g for 1 minute, after which they were incubated at 37° C., 5% CO2, >98% humidity for 24 h. Luciferase reporter activity was then measured. EC50 values were calculated by using standard methods known in the art.
Luciferase reporter assay: 10 μL of supernatant from the assay was transferred to white 384-plate with flat bottom and squared wells. One pouch of QUANTI-Luc™ Plus was dissolved in 25 mL of water. 100 μL of QLC Stabilizer per 25 mL of QUANTI-Luc™ Plus solution was added. 50 μL of QUANTI-Luc™ Plus/QLC solution per well was then added. Luminescence was measured on a Platereader (e.g., Spectramax I3X (Molecular Devices GF3637001)).
Luciferase reporter activity was then measured. EC50 values were calculated by using standard methods known in the art.

T1 sequence (Q86WV6 whole entry R71H/G230A/H232R/R293Q): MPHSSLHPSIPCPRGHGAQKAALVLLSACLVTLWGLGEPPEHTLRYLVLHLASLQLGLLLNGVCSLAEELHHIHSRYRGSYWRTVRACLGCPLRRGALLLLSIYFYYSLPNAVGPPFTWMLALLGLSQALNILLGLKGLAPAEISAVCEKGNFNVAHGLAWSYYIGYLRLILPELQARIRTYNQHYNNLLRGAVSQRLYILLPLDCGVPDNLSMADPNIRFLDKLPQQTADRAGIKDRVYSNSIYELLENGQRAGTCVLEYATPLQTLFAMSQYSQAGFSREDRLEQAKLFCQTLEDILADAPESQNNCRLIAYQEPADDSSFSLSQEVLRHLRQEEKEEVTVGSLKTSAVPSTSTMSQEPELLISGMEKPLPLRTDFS

EC50 [µM] | Compound
0.2 to 1 | FC(F)(F)CN1CCC(c2ccc3[nH]c(Nc4cc(Cl)c5cc[nH]c5c4)nc3c2)CC1 [Compound 153, N-(4-chloro-1H-indol-6-yl)-5-[1-(2,2,2-trifluoroethyl)piperidin-4-yl]-1H-1,3-benzodiazol-2-amine]
0.2 to 1 | Clc1cc(Nc2nc3cc(C4CCOC4)ccc3[nH]2)cc2[nH]ccc12 (stereo not shown) [Compound 154, N-(4-chloro-1H-indol-6-yl)-5-(oxolan-3-yl)-1H-1,3-benzodiazol-2-amine]
0.2 to 1 | CC(C)n1cc(-c2ccc3[nH]c(Nc4cc(Cl)c5cc[nH]c5c4)nc3c2)cn1 [Compound 155, N-(4-chloro-1H-indol-6-yl)-5-[1-(propan-2-yl)-1H-pyrazol-4-yl]-1H-1,3-benzodiazol-2-amine]
0.2 to 1 | Clc1cc(Nc2nc3cc(-c4cnn(CC5CC5)c4)ccc3[nH]2)cc2[nH]ccc12 [Compound 156, N-(4-chloro-1H-indol-6-yl)-5-[1-(cyclopropylmethyl)-1H-pyrazol-4-yl]-1H-1,3-benzodiazol-2-amine]
0.2 to 1 | COCCn1cc(-c2ccc3[nH]c(Nc4cc(Cl)c5cc[nH]c5c4)nc3c2)cn1 [Compound 158, N-(4-chloro-1H-indol-6-yl)-5-[1-(2-methoxyethyl)-1H-pyrazol-4-yl]-1H-1,3-benzodiazol-2-amine]
0.2 to 1 | Clc1cc(Nc2nc3cc(-c4cnn(C5CCOCC5)c4)ccc3[nH]2)cc2[nH]ccc12 [Compound 159, N-(4-chloro-1H-indol-6-yl)-5-[1-(oxan-4-yl)-1H-pyrazol-4-yl]-1H-1,3-benzodiazol-2-amine]
5 to 100 | CN1CCC(c2ccc3[nH]c(Nc4cc(Cl)c5cc[nH]c5c4)nc3c2)CC1 [Compound 160, N-(4-chloro-1H-indol-6-yl)-5-(1-methylpiperidin-4-yl)-1H-1,3-benzodiazol-2-amine]
0.2 to 1 | Clc1cc(Nc2nc3cc(C4CCOCC4)ccc3[nH]2)cc2[nH]ccc12 [Compound 161, N-(4-chloro-1H-indol-6-yl)-5-(oxan-4-yl)-1H-1,3-benzodiazol-2-amine]
0.2 to 1 | CC(C)(C)OC(=O)N1CCC(c2ccc3[nH]c(Nc4cc(Cl)c5cc[nH]c5c4)nc3c2)CC1 [Compound 162, tert-butyl 4-{2-[(4-chloro-1H-indol-6-yl)amino]-1H-1,3-benzodiazol-5-yl}piperidine-1-carboxylate]
0.2 to 1 | FC(F)n1cc(-c2ccc3[nH]c(Nc4cc(Cl)c5cc[nH]c5c4)nc3c2)cn1 [Compound 163, N-(4-chloro-1H-indol-6-yl)-5-[1-(difluoromethyl)-1H-pyrazol-4-yl]-1H-1,3-benzodiazol-2-amine]
0.2 to 1 | Clc1cc(Nc2nc3cc(-c4cnn(-c5ccccc5)c4)ccc3[nH]2)cc2[nH]ccc12 [Compound 164, N-(4-chloro-1H-indol-6-yl)-5-(1-phenyl-1H-pyrazol-4-yl)-1H-1,3-benzodiazol-2-amine]
0.2 to 1 | CC(C)CCc1ccc2[nH]c(Nc3cc(Cl)c4cc[nH]c4c3)nc2c1 [Compound 165, N-(4-chloro-1H-indol-6-yl)-5-(3-methylbutyl)-1H-1,3-benzodiazol-2-amine]
0.2 to 1 | CC(C)(O)c1ccc(-c2ccc3[nH]c(Nc4cc(Cl)c5cc[nH]c5c4)nc3c2)cc1 [Compound 166, 2-(4-{2-[(4-chloro-1H-indol-6-yl)amino]-1H-1,3-benzodiazol-5-yl}phenyl)propan-2-ol]
0.2 to 1 | N#Cc1cncc(-c2ccc3[nH]c(Nc4cc(Cl)c5cc[nH]c5c4)nc3c2)c1 [Compound 167, 5-{2-[(4-chloro-1H-indol-6-yl)amino]-1H-1,3-benzodiazol-5-yl}pyridine-3-carbonitrile]
0.2 to 1 | Clc1cc(Nc2nc3cc(C4CCCCC4)ccc3[nH]2)cc2[nH]ccc12 [Compound 168, N-(4-chloro-1H-indol-6-yl)-5-cyclohexyl-1H-1,3-benzodiazol-2-amine]
0.2 to 1 | COCc1cccc(-c2ccc3[nH]c(Nc4cc(Cl)c5cc[nH]c5c4)nc3c2)c1 [Compound 169, N-(4-chloro-1H-indol-6-yl)-5-[3-(methoxymethyl)phenyl]-1H-1,3-benzodiazol-2-amine]
0.2 to 1 | FC(F)(F)Oc1ccc(-c2ccc3[nH]c(Nc4cc(Cl)c5cc[nH]c5c4)nc3c2)cc1 [Compound 170, N-(4-chloro-1H-indol-6-yl)-5-[4-(trifluoromethoxy)phenyl]-1H-1,3-benzodiazol-2-amine]
0.2 to 1 | CS(=O)(=O)N1CCC(c2ccc3[nH]c(Nc4cc(Cl)c5cc[nH]c5c4)nc3c2)CC1 [Compound 171, N-(4-chloro-1H-indol-6-yl)-5-(1-methanesulfonylpiperidin-4-yl)-1H-1,3-benzodiazol-2-amine]
0.2 to 1 | O=C(C1CC1)N1CCC(c2ccc3[nH]c(Nc4cc(Cl)c5cc[nH]c5c4)nc3c2)CC1 [Compound 172, N-(4-chloro-1H-indol-6-yl)-5-(1-cyclopropanecarbonylpiperidin-4-yl)-1H-1,3-benzodiazol-2-amine]
0.2 to 1 | CC(C)(O)CCc1ccc2[nH]c(Nc3cc(Cl)c4cc[nH]c4c3)nc2c1 [Compound 173, 4-{2-[(4-chloro-1H-indol-6-yl)amino]-1H-1,3-benzodiazol-5-yl}-2-methylbutan-2-ol]
0.04 to 0.2 | Fc1c[nH]c2cc(Nc3nc4cc(Cl)c(Cl)cc4[nH]3)ccc12 [Compound 174, 5,6-dichloro-N-(3-fluoro-1H-indol-6-yl)-1H-1,3-benzodiazol-2-amine]
0.04 to 0.2 | Fc1c[nH]c2cc(Nc3nc4cc(C(F)(F)F)ccc4[nH]3)ccc12 [Compound 175, N-(3-fluoro-1H-indol-6-yl)-5-(trifluoromethyl)-1H-1,3-benzodiazol-2-amine]
